Results published in patent US5672710A, “Sulfides, sulfoxides and sulfones disubstituted with a tetrahydronaphthalenyl, chromanyl, thiochromanyl or tetrahydroquinolinyl and substituted phenyl or heteroaryl group, having retinoid-like biological activity” (priority 1995, dated 1997).
pKd: −log10 of the molar value.

How the values were obtained:
RARβ = molecular target: T1, RARβ (Homo sapiens, UniProt P10826); test: Holoreceptor transactivation assay, RARβ; type: cell-based; conditions: CV-1; CV1 cells; relative to all trans retinoic acid; read-out: Transactivation Assay Efficacy (% of RA activity), RARβ
T1 construct: expressed in transfected cells; host or cells: CV1
T1 sequence (P10826 1-448 isoform P10826-2): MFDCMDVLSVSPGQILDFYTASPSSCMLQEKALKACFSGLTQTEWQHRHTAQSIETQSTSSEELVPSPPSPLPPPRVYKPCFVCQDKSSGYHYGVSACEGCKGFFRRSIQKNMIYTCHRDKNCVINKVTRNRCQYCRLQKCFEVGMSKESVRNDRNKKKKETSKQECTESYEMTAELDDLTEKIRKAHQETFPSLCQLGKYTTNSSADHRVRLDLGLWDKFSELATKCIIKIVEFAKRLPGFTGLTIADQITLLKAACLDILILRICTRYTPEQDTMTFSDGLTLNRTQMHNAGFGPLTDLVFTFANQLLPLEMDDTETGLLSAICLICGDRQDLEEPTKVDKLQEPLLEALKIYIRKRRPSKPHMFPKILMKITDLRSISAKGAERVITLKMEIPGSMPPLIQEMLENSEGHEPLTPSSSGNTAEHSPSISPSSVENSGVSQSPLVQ
Excerpt: (§1) A holoreceptor transactivation assay and a ligand binding assay which measure the ability of the compounds of the invention to bind to the several retinoid receptor subtypes, respectively, are described in published PCT Application No. WO W093/11755 (particularly on pages 30-33 and 37-41) published on Jun. 24, 1993, the specification of which is also incorporated herein by reference. A description of the holoreceptor transactivation assay is also provided below.
(§2) CV1 cells (5,000 cells/well) were transfected with an RAR reporter plasmid MTV-TREp-LUC (50 ng) along with one of the […] expression vectors (10 ng) in an automated 96-well format by the calcium phosphate procedure of Heyman et al. Cell 68, 397-406. (8). For RXRα and RXR.GAMMA. transactivation assays, an RXR-responsive reporter plasmid CRBPII-tk-LUC (50 ng) along with the appropriate RXRexpression vectors (10 ng) was used substantially as described by Heyman et al. above, and Allegretto et al. J. Biol. Chem. 268, 26625-26633. For RXRβ transactivation assays, an RXR-responsive reporter plasmid CPRE-tk-LUC ([…]) along with RXRβ expression vector ([…]) was used as described in above. These reporters contain DRI elements from human CRBPII and certain DRI elements from promoter, respectively. (see Mangelsdorf et al. The Retinoids: Biology, Chemistry and Medicine, pp 319-349, Raven Press Ltd., New York and Heyman et al., cited above) (1, 8). A β-galactosidase (50 ng) expression vector was used as an internal control in the transfections to normalize for variations in transfection efficiency. The cells were transfected in triplicate for 6 hours, followed by incubation with retinoids for 36 hours, and the extracts were assayed for luciferase and β-galactosidase activities. The detailed experimental procedure for holoreceptor transactivations has been described in Heyman et al. above, and Allegretto et al. cited above. The results obtained in this assay in connection with examplary compounds in accordance with the present invention are expressed in EC50 numbers, as they are also in the chimeric receptor transactivation assay. The Heyman et al. Cell 68, 397-406, Allegretto et al. J. Biol. Chem. 268, 26625-26633, and Mangelsdorf et al. The Retinoids: Biology, Chemistry and Medicine, pp 319-349, Raven Press Ltd., New York, are expressly incorporated herein by reference. The results of ligand binding assay are expressed in Kd numbers. (See Cheng et al. Biochemical Pharmacology Vol. 22 pp 3099-3108, expressly incorporated herein by reference.)

RXRβ = molecular target: T2, RXRβ (Mus musculus, UniProt P28704); test: Ligand binding assay, RXRβ
T2 construct: expressed in transfected cells; host or cells: CV1
T2 sequence (P28704 1-520): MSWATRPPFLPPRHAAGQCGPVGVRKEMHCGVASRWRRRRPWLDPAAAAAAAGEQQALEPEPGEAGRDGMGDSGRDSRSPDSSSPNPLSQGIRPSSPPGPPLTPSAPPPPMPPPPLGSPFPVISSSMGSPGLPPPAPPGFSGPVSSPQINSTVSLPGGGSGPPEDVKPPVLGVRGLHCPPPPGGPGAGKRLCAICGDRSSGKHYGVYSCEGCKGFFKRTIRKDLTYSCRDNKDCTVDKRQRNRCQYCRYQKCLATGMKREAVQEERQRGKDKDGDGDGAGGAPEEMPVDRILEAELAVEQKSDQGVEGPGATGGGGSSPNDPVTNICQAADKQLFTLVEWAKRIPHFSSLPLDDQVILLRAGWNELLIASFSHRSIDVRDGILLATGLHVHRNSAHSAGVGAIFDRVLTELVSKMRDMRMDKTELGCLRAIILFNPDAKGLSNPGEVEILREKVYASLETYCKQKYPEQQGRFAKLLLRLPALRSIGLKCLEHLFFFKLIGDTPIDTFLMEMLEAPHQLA
Excerpt: as §1, §2

RARα = molecular target: T3, RARα (Homo sapiens, UniProt P10276); test: Ligand binding assay, RARα
T3 construct: expressed in transfected cells; host or cells: CV1
T3 sequence (P10276 1-462): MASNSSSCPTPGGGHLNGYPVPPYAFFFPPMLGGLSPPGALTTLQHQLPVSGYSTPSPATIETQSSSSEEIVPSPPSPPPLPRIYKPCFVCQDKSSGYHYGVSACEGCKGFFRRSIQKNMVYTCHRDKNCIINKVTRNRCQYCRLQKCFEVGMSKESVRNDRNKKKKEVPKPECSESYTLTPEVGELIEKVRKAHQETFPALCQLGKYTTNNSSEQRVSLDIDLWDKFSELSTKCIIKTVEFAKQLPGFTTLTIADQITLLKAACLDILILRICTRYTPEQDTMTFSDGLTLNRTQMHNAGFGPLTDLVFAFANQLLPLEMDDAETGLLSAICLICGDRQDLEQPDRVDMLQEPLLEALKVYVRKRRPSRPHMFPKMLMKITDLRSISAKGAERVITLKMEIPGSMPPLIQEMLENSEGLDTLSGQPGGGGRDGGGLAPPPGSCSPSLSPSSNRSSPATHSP
Excerpt: as §1, §2

| Structure (SMILES) | Emax (RARβ) | pKd (RXRβ) | pKd (RARα) |
| --- | --- | --- | --- |
| CC1(C)CCC(C)(C)c2cc(S(=O)(=O)c3ccc(C(=O)O)cc3)ccc21 [Compound 5, 4-(5,6,7,8-tetrahydro-5,5,8,8-tetramethyl-2-naphthylsulfonyl)benzoic acid] | 4% | < 6.00 | < 6.00 |
| CC1(C)CCC(C)(C)c2cc(Sc3ccc(C(=O)O)cc3)ccc21 [Compound 2] | 66% | < 6.00 | < 6.00 |
| Cc1cc2c(cc1S(=O)(=O)c1ccc(C(=O)O)cc1)C(C)(C)CCC2(C)C [Compound 11, 4-(5,6,7,8-tetrahydro-3,5,5,8,8-pentamethyl-2-naphthylsulfonyl)benzoic acid] | 6% | – | < 6.00 |

The remaining lines, values ahead:

| Emax (RARβ) | pKd (RXRβ) | pKd (RARα) | Structure (SMILES) |
| --- | --- | --- | --- |
| 4% | 6.52 | < 6.00 | Cc1cc2c(cc1Sc1ccc(C(=O)O)cc1)C(C)(C)CCC2(C)C [Compound 7, 4-(5,6,7,8-tetrahydro-3,5,5,8,8-pentamethyl-2-Daphthylthio)benzoic acid] |
| 4% | 7.24 | < 5.00 | Cc1cc2c(cc1Sc1ccc(C(=O)O)cn1)C(C)(C)CCC2(C)C [Compound 13] |
| 0% | < 6.00 | < 6.00 | Cc1cc2c(cc1Sc1ncc(C(=O)O)s1)C(C)(C)CCC2(C)C [Compound 15, 2-(5,6,7,8-Tetrahydro-3,5,5,8,8-pentamethyl-2-naphthylthio)-5-thiazolecarboxylic acid] |
| 4% | < 6.00 | < 6.00 | Cc1cc2c(cc1[S+]([O-])c1ccc(C(=O)O)cc1)C(C)(C)CCC2(C)C (centres unmarked) [Compound 9, 4-(5,6,7,8-tetrahydro-3,5,5,8,8-pentamethyl-2-naphthylsulfoxy)benzoic acid] |
